The structures appear in SMILES notation.

Four molecules from EP0219377A1, “Process for the preparation of spherical paracetamol agglomerates and products obtained thereby” (RHONE-POULENC SANTE, priority 1985, dated 1987) can be followed below.

Data set [1] is described as follows: dissolution of suspensions of 1, 2 and 3 g in 200 cm3 of water, stirred at room temperature. To be noted: insoluble filtered, dried and weighed after at most 10 minutes. It counts as physicochemical. The source says:
Les résultats suivants sont obtenus :

Data set [2] in a line: flowability (coulabilité) test on the Hosokawa combined powder tester. The class given is physicochemical. The settings on record: for Angle de spatule / Angle de talus / Densité (non tassée): combiné Hosokawa. The source says: Les propriétés de coulabilité et de dissolution du produit ainsi obtenu sont comparées à celle de paracétamol cristallisé paracétamol broyé (refus à 425 µ < 0,5 %, refus à 250 µ < 5 %) paracétamol broyé super fin (refus à 50 µ < 10 %, refus à 80 µ < 1 %) a) coulabilité : les produits sont testés sur le combiné Hosokawa commercialisé par Hosokawa Europe Ltd, St John's Estate, Tylers Green High Wycombe, Buckinghamshire, England.

The mark [3] stands for this setting: Concentration 5 g/l (1 g in 200 cm3 water).
Where [4] appears, read: Concentration 10 g/l (2 g in 200 cm3 water).
Setting [5] is: Concentration 15 g/l (3 g in 200 cm3 water).

The molecule `CC(=O)Nc1ccc(O)cc1` [Cristallisé, paracétamol] showed a Pourcentage dissous in data set [1] (setting [3]) above 95. In addition, the Pourcentage dissous in data set [1] (setting [4]) was determined as 85. Besides, the Pourcentage dissous in data set [1] (setting [5]) is reported as 83. In data set [2], the Angle de spatule was 39°, the Angle de talus worked out at 39° and the “Densité (non tassée)” value is recorded as 700 kg/m3.
`CC(=O)Nc1ccc(O)cc1` [Broyé, paracétamol]: the Pourcentage dissous in data set [1] (setting [3]) is listed as 100. In addition, the Pourcentage dissous in data set [1] (setting [4]) worked out at 100. In data set [1] (setting [5]), this molecule displayed a Pourcentage dissous above 98. Also, in data set [2], the Angle de spatule was 74°, the Angle de talus is 56° and the “Densité (non tassée)” value is recorded as 280 kg/m3.
In the case of `CC(=O)Nc1ccc(O)cc1` [Aggloméré, paracétamol], the Pourcentage dissous in data set [1] (setting [3]) is given as 100; in data set [1] (setting [4]), 100; in data set [1] (setting [5]), above 98. Moreover, the Angle de spatule in data set [2] was found to be 41°. In data set [2], the Angle de talus is listed as 37°. In addition, the “Densité (non tassée)” value in data set [2] amounted to 400 kg/m3. Moreover, the coulabilité result in data set [2] (result in words, compared with the crystallised and ground products) is given as “aussi bonne que le produit cristallisé”.
`CC(=O)Nc1ccc(O)cc1` [Broyé super fin, paracétamol] gave a Pourcentage dissous in data set [1] (setting [3]) of 100. Moreover, the Pourcentage dissous in data set [1] (setting [4]) was 100. Also, the Pourcentage dissous in data set [1] (setting [5]) is reported as above 98. In data set [2], the Angle de spatule amounted to 76°, the Angle de talus amounted to 60° and the “Densité (non tassée)” value was determined as 150 kg/m3.
